Measurements: patent publication US12344578B2, “Salt forms of bempedoic acid and methods for using the same” (Esperion Therapeutics, Inc., priority 2019, dated 2025)

Experiment: Thermogravimetric analysis (TGA), weight loss on heating
Format: physicochemical
Description: Thermogravimetric analysis (TGA) data for the crystalline form of the compound of formula (V) were collected using a TA Discovery 550 TGA instrument. The TGA instrument was calibrated using a nickel reference standard. Samples of the crystalline form of the compound of formula (V) were placed in open platinum sample pans and heated at a rate of 10° C./minute from about ambient temperature (˜25° C.) to about 315° C.
TGA data were collected using a TA Discovery 550 TGA instrument. The TGA instrument was calibrated using a nickel reference standard. Samples were placed in open platinum sample pans and heated at a rate of 10° C./minute from about ambient temperature (˜25° C.) to about 315° C.

Structure (SMILES): CC(C)(CCCCCC(O)CCCCCC(C)(C)C(=O)O)C(=O)O [8-hydroxy-2,2,14,14-tetramethylpentadecanedioic acid]
- TGA weight loss prior to decomposition (heated at 10° C./minute from ~25° C. to about 315° C.): negligible weight loss

Structure (SMILES): CC(C)(CCCCCC(O)CCCCCC(C)(C)C(=O)[O-])C(=O)[O-].[Ca+2] [Crystalline Form A of the calcium salt]
- TGA weight loss (up to 62.8° C.): Negligible weight loss

Structure (SMILES): CC(C)(CCCCCC(O)CCCCCC(C)(C)C(=O)[O-])C(=O)[O-].[Ca+2] [Crystalline Form B of the calcium salt]
- TGA weight loss (up to 86.9° C.): 2.23%
